Peptide text beside a SMILES is read from it.

One assay concerns S. typhimurium pyrCΔ73. Format: cell-based, Salmonella typhimurium.
Assay [1] has as its system E. coli strain 14445 (MG1655 himA). In kind it is cell-based.
Assay [2] relates to E. coli 287 (ATCC #11775). In kind it is cell-based.
Assay [3] deals with E. coli MG1655. In kind it is cell-based.
The test system of assay [4] is E. coli strain 11547 (O157:H7). Format: cell-based.
The test system of assay [5] is E. coli strain 13673 (O157). In kind it is cell-based.
Assay [6] relates to E. coli strain 13671 (O157:H? gur+). In kind it is cell-based.
The test system of assay [7] is E. coli strain 13675 (O157). Format: cell-based.
The next assay deals with T. harzianum DAOM 190830. In kind it is cell-based, Trichoderma harzianum.
For assay [8], the system named is E. coli strain 14443 (MG1655 (FB426)). Format: cell-based.
Assay [9] relates to E. coli strain 6322 (EMG2 (K12, λF+)). Format: cell-based.
For assay [10], the system named is E. coli strain 6320 (W3110). Format: cell-based. Note: key: '+' indicates that the organism tested was capable of utilizing the carbon source listed; '−' indicates that the organism tested was not capable of utilizing the carbon source listed; 'w' indicates weak positive reactions.
Assay [11] relates to E. coli strain 6321 (MG1655). Format: cell-based.
In assay [12] the test system is E. coli strain 14444 (MG1655 xylA). In kind it is cell-based.
The subject of assay [13] is E. coli MG1655. In kind it is cell-based. This is another data set of the same source.

As for `Nc1ccn([C@H]2C[C@H](O)[C@@H](CO)O2)c(=O)n1` [2-deoxycytidine], the “growth stimulation by supplement (well color)” value (“growth stimulation” below) in the assay on S. typhimurium pyrCΔ73 is reported as “turned purple”.

With `CCC(=O)C(=O)O` [α-ketobutyric acid], the “carbon source utilization, in words” value in assay [1] is “negative”. The “carbon source utilization result” value in assay [2] is recorded as “positive”.

Regarding `Nc1ccn([C@@H]2O[C@H](CO)[C@@H](O)[C@H]2OP(=O)(O)O)c(=O)n1` [cytidine 2′-monophosphate], the “suitability as phosphorus source (growth, purple color)” value (“suitability as phosphorus source” below) in the assay on E. coli MG1655 [3] is “not suitable”. Moreover, the “growth stimulation” value in the assay with S. typhimurium pyrCΔ73 is “turned purple”.

`O=c1ccn([C@@H]2O[C@H](CO)[C@@H](OP(=O)(O)O)[C@H]2O)c(=O)[nH]1` [uridine 3′-monophosphate]: the “suitability as phosphorus source” value with E. coli MG1655 [3] was “positive”. In addition, the “growth stimulation” value in the assay with S. typhimurium pyrCΔ73 was “turned purple”.

Take `OC[C@@H](O)[C@@H](O)[C@H](O)[C@@H](O)CO` [D-sorbitol]: the “carbon source utilization, in words” value in assay [4], in [5], in [6] and in [7] was “negative” in each case. The “carbon source utilization result” value (in [2]; with T. harzianum DAOM 190830) was “positive” in each case.

Maltotriose: the carbon source utilization result in assay [8] is given as “+”; in [9] it was “+”; in [4] it was “+”; in assay [5], “+”; in [6], “+”; in assay [1], “−”. Moreover, the carbon source utilization entry in assay [10] was “+”; in [7], “+”; in assay [11], “+”; in assay [12], “−”. The “carbon source utilization, in words” value in assay [1] and in [12] was “negative” in each case.

`OC[C@@H](O)[C@H](O)[C@H](O)[C@@H](O)CO` [Dulcitol]: the carbon source utilization result is reported as “−” in assay [8]; “−” in assay [9]; “+” in assay [4]; “−” in assay [5]; “+” in assay [6]; “−” in assay [1]. The carbon source utilization result in assay [10] was “−”; in assay [7], “+”; in [11], “+”; in [12] it was “−”.

Consider `Nc1ncnc2c1ncn2[C@H]1C[C@H](O)[C@@H](CO)O1` [2′-deoxy-adenosine], for which the “growth stimulation” value in the assay on S. typhimurium pyrCΔ73 is “turned weakly purple”.

Regarding `Nc1ccn([C@@H]2O[C@H](CO)[C@@H](OP(=O)(O)O)[C@H]2O)c(=O)n1` [cytidine 3′-monophosphate], the “suitability as phosphorus source” value in the assay on E. coli MG1655 [3] is recorded as “positive”. In addition, in the assay on S. typhimurium pyrCΔ73, the “growth stimulation” value is given as “turned purple”.

In the case of `CCC(O)C(=O)O` (stereo not drawn) [α-hydroxy butyric acid], in assay [1], the “carbon source utilization, in words” value is reported as “negative”.

As for `O=c1ccn([C@@H]2O[C@H](COP(=O)(O)O)[C@@H](O)[C@H]2O)c(=O)[nH]1` [uridine 5′-monophosphate], the “suitability as phosphorus source” value with E. coli MG1655 [3] is reported as “positive”. The “growth stimulation” value with S. typhimurium pyrCΔ73 was “turned purple”.

Consider `O=C(O)CO` [Glycolic acid], for which, in assay [1], the “carbon source utilization, in words” value is “negative”.

With `Nc1nc2nc[nH]c2c(=O)[nH]1` [guanine], the “growth stimulation” value in the assay on S. typhimurium pyrCΔ73 is given as “turned weakly purple”.

`CCC(=O)O` [Propionic acid]: the “carbon source utilization, in words” value in [1] is given as “negative”. In assay [2], the “carbon source utilization result” value is given as “positive”.

Consider `Nc1ncnc2c1ncn2[C@@H]1O[C@H](CO)[C@@H](OP(=O)(O)O)[C@H]1O` [adenosine 3-monophosphate, adenosine 3′-monophosphate], for which, in the assay with E. coli MG1655 [3], the “suitability as phosphorus source” value is listed as “positive”. The “growth stimulation” value in the assay with S. typhimurium pyrCΔ73 is recorded as “turned weakly purple”.

In the case of `Nc1ncnc2c1ncn2[C@@H]1O[C@H](CO)[C@@H](O)[C@H]1OP(=O)(O)O` [adenosine-2′-monophosphate], in the assay on E. coli MG1655 [3], the “suitability as phosphorus source” value is on record as “positive”. Moreover, the “growth stimulation” value in the assay on S. typhimurium pyrCΔ73 is listed as “turned weakly purple”.

Take `O=C[C@H](O)[C@@H](O)[C@H](O)CO` [D-xylose]: the “carbon source utilization, in words” value in assay [8] is on record as “positive”; in [12] it was “negative”.

On to `O=c1cc[nH]c(=O)[nH]1` [uracil], for which the “suitability as nitrogen source (growth, purple color)” value (from here on “suitability as nitrogen source”) in the assay with E. coli MG1655 [13] is “not suitable”. Moreover, in the assay with S. typhimurium pyrCΔ73, the “growth stimulation” value was “turned purple”.

For the compound `O=c1ccn([C@@H]2O[C@H](CO)[C@@H](O)[C@H]2O)c(=O)[nH]1` [Uridine], the “carbon source utilization result” value in assay [2] is recorded as “positive”. In addition, the “suitability as nitrogen source” value in the assay with E. coli MG1655 [13] is “not suitable”. In addition, in the assay with S. typhimurium pyrCΔ73, the “growth stimulation” value is given as “turned purple”.

In the case of `Nc1nc2c(ncn2[C@H]2C[C@H](O)[C@@H](CO)O2)c(=O)[nH]1` [2′deoxyguanosine], in the assay with S. typhimurium pyrCΔ73, the “growth stimulation” value is “turned weakly purple”.

Turning to Tween-80, the carbon source utilization result in assay [8] was “−”; in assay [1] it was “−”; in assay [11] it was “+”; in assay [12], “−”. The “carbon source utilization result” value (in [2]; with T. harzianum DAOM 190830) was “positive” throughout.

On to `NCC(=O)N[C@@H](CCC(=O)O)C(=O)O` [Glycyl-L-glutamic acid] (H-Gly-Glu-OH), for which the “carbon source utilization result” value (in assay [2]; with T. harzianum DAOM 190830) was “positive” throughout. Further, in the assay with E. coli MG1655 [13], the “suitability as nitrogen source” value was “positive”.

For the compound `O=C(O)C[C@@H](O)C(=O)O` [D-malic acid], the carbon source utilization entry in assay [8], in [9], in [4], in assay [5], in assay [6] and in assay [1] was “+” each time. For the same compound, the carbon source utilization result in assay [10], in assay [11] and in assay [12] was “+” each time.

`Nc1ccn([C@@H]2O[C@H](COP(=O)(O)O)[C@@H](O)[C@H]2O)c(=O)n1` [cytidine 5′-monophosphate]: the “suitability as phosphorus source” value in the assay on E. coli MG1655 [3] is listed as “positive”. For the same compound, the “growth stimulation” value in the assay on S. typhimurium pyrCΔ73 is “turned purple”.

For `OC[C@H]1O[C@H](O[C@H]2[C@H](O)[C@@H](O)[C@H](O)O[C@@H]2CO)[C@H](O)[C@@H](O)[C@@H]1O` [Maltose], the “carbon source utilization, in words” value in assay [1] and in assay [12] was “negative” throughout. The “carbon source utilization result” value in assay [2] is reported as “positive”.

As for `Nc1cc[nH]c(=O)n1` [cytosine], in the assay on E. coli MG1655 [13], the “suitability as nitrogen source” value is on record as “not suitable”. In the assay with S. typhimurium pyrCΔ73, the “growth stimulation” value is “turned purple”.

Consider `Nc1nc2c(ncn2[C@@H]2O[C@H](CO)[C@@H](O)[C@H]2OP(=O)(O)O)c(=O)[nH]1` [guanosine 2′-monophosphate], for which the “suitability as phosphorus source” value in the assay on E. coli MG1655 [3] is on record as “positive”. Further, the “growth stimulation” value with S. typhimurium pyrCΔ73 is “turned weakly purple”.

For the compound `Nc1nc2c(ncn2[C@@H]2O[C@H](COP(=O)(O)O)[C@@H](O)[C@H]2O)c(=O)[nH]1` [guanosine 5′-monophosphate], the “suitability as phosphorus source” value in the assay with E. coli MG1655 [3] was “positive”. The “growth stimulation” value in the assay with S. typhimurium pyrCΔ73 is recorded as “turned weakly purple”.

For the compound `OC[C@H]1O[C@@H](n2cnc3c(O)ncnc32)[C@H](O)[C@@H]1O` [Inosine], the “carbon source utilization result” value (in assay [2]; with T. harzianum DAOM 190830) was “positive” each time. Moreover, the “suitability as nitrogen source” value in the assay with E. coli MG1655 [13] was “not suitable”. The “growth stimulation” value in the assay on S. typhimurium pyrCΔ73 is “turned weakly purple”.

With `CC(=O)N[C@H]1C(O)O[C@H](CO)[C@@H](O)[C@@H]1O` (stereo partly drawn) [N-acetyl-D-glucosamine], the “carbon source utilization result” value (in assay [2]; with T. harzianum DAOM 190830) was “positive” each time. In the assay with E. coli MG1655 [13], the “suitability as nitrogen source” value was “positive”.

As to `O=C(O)[C@@H](O)[C@@H](O)[C@H](O)[C@@H](O)C(=O)O` [D-saccharic acid], the “carbon source utilization, in words” value in assay [4], in assay [5], in [6] and in assay [7] was “negative” each time.

With Tween-20, the carbon source utilization entry in assay [8], in assay [1], in assay [10] and in [12] was “−” each time.

With `O=c1ccn([C@H]2C[C@H](O)[C@@H](CO)O2)c(=O)[nH]1` [2-deoxyuridine], the “growth stimulation” value with S. typhimurium pyrCΔ73 is reported as “turned purple”.

On to `Nc1ncnc2c1ncn2[C@@H]1O[C@H](COP(=O)(O)O)[C@@H](O)[C@H]1O` [adenosine 5′-monophosphate], for which the “suitability as phosphorus source” value in the assay on E. coli MG1655 [3] was “not suitable”. In addition, in the assay on S. typhimurium pyrCΔ73, the “growth stimulation” value was “turned weakly purple”.

With `Nc1ccn([C@@H]2O[C@H](CO)[C@@H](O)[C@H]2O)c(=O)n1` [cytidine], the “growth stimulation” value in the assay with S. typhimurium pyrCΔ73 is given as “turned purple”.

Source of the values: patent publication US6727076B2 (priority 1995, dated 2004).
